Data on 8 compounds can be found in ChEMBL document CHEMBL1201862, “PubChem BioAssay data set” (2004).

Holding throughout (assay): NCI-60 cell line screen, 48 h
Assay [1] has as its system COLO 205.
In assay [2] the test system is SF-268.
The subject of assay [3] is MCF7.
The test system of assay [4] is SN12C.
Assay [5] concerns NCI-H522.
For assay [6], the system named is NCI-H226.
For assay [7], the system named is NCI-H460.
In assay [8] the test system is MDA-N.
The test system of assay [9] is T47D.
Assay [10] relates to UACC-62.
Assay [11] deals with HT-29.
The test system of assay [12] is MDA-MB-231.
The test system of assay [13] is OVCAR-5.
Assay [14] has as its system KM12.
In assay [15] the test system is CCRF-CEM.
For assay [16], the system named is IGROV-1.
Assay [17] relates to SK-OV-3.

The structures appear in SMILES notation.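 Five concentrations, 48 hours, 96-well plates. GI50 is the concentration that inhibits growth by half.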 Calls of active or inactive are those of the source. Rule as the data show it: active = GI50 up to about 1.1 µM and inactive = higher.

As to `CCN1CCN=c2c3cc(OC)ccc3n3cnc4ccc1c2c43`, the GI50 in assay [1] was 0.15 µM (active); in [2], 0.427 µM (active); in [3], 0.219 µM (active); in [4] it was 0.142 µM (active); in [5], 0.00865 µM (active); in assay [6] it was 0.323 µM (active). The GI50 in assay [7] is 0.0948 µM (active); in [8] it was 0.256 µM (active); in [9], 0.39 µM (active); in assay [10], 0.246 µM (active); in [11], 0.173 µM (active); in assay [12], 0.275 µM (active). Besides, the GI50 in [13] is 0.316 µM (active); in assay [14] it was 0.395 µM (active); in [15] it was 0.102 µM (active); in assay [16] it was 2.02 µM (inactive); in assay [17], 0.348 µM (active).
Turning to `COC(=O)c1ccc2c(c1)S/C(=C/c1ccc3ccc4cccc5ccc1c3c45)S2`, the GI50 is > 100 µM (inactive) in [1]; 32.1 µM (inactive) in assay [2]; 33.3 µM (inactive) in [3]; > 100 µM (inactive) in assay [4]; 21 µM (inactive) in [5]; > 100 µM (inactive) in assay [6]. For the same compound, the GI50 in assay [7] was 64.4 µM (inactive); in assay [8] it was 52.5 µM (inactive); in assay [9] it was > 100 µM (inactive); in assay [10], 22.9 µM (inactive); in [11], > 100 µM (inactive); in [12], > 100 µM (inactive). The GI50 is > 100 µM (inactive) in assay [13]; 24.4 µM (inactive) in assay [14]; 34.5 µM (inactive) in assay [15]; 46 µM (inactive) in [16]; > 100 µM (inactive) in assay [17].
Take `CCOC(=O)N1CCN(Cc2cc(=O)n3ccc(C)cc3n2)CC1`: the GI50 in assay [1], in [2], in [3], in assay [4], in [5] and in [6] was > 100 µM (inactive) throughout. The GI50 in assay [7], in assay [8], in [9], in assay [10], in assay [11] and in assay [12] was > 100 µM (inactive) in each case. Besides, the GI50 in assay [13], in [14], in [15], in assay [16] and in assay [17] was > 100 µM (inactive) throughout.
`COc1ncc(C=C(C#N)C#N)c(OC)n1`: the GI50 in [1] was 36 µM (inactive); in assay [2], 61.8 µM (inactive); in assay [3], 36.7 µM (inactive); in [4], 26.8 µM (inactive); in assay [5] it was 16.7 µM (inactive); in [6] it was > 100 µM (inactive). In addition, the GI50 in [7] is 41 µM (inactive); in [8] it was 26.9 µM (inactive); in [9], > 100 µM (inactive); in assay [10], 33.8 µM (inactive); in assay [11], 40 µM (inactive); in assay [12], 41.5 µM (inactive). The GI50 in assay [13] was 86.7 µM (inactive); in [14], 50 µM (inactive); in assay [15] it was 7.48 µM (inactive); in assay [16], 59.3 µM (inactive); in [17] it was > 100 µM (inactive).
For `CCOC(=O)CSc1nc(N)c2c(-c3ccccc3)c3c(nc2n1)CCCC3`, the GI50 in [1], in [2], in assay [3], in [4], in assay [5] and in assay [6] was > 100 µM (inactive) throughout. Further, the GI50 in assay [7], in assay [8], in [9], in assay [10], in assay [11] and in [12] was > 100 µM (inactive) in each case. Further, the GI50 in [13], in assay [14], in [15], in assay [16] and in assay [17] was > 100 µM (inactive) in each case.
`O=[N+]([O-])C1=Cc2c(O)ccc(O)c2C2c3ccccc3NC12` (stereo unspecified): the GI50 was 11.6 µM (inactive) in assay [1]; 16.7 µM (inactive) in [2]; 2.71 µM (inactive) in assay [3]; 16.7 µM (inactive) in assay [4]; 2.45 µM (inactive) in [5]; 61.2 µM (inactive) in [6]. The GI50 in assay [7] is 12.8 µM (inactive); in assay [8] it was 18.3 µM (inactive); in assay [9], 7.03 µM (inactive); in assay [10] it was 6.32 µM (inactive); in [11], 9.02 µM (inactive); in [12] it was 13.6 µM (inactive). For the same compound, the GI50 in assay [13] is 16.1 µM (inactive); in assay [14], 9.04 µM (inactive); in assay [15], 3.88 µM (inactive); in assay [16], 13.5 µM (inactive); in [17] it was 29 µM (inactive).
As for `COC(=O)[C@H](Cc1c[nH]c2ccccc12)NC(=O)OCC1OC(n2cc(C)c(=O)[nH]c2=O)CC1N=[N+]=[N-]` (stereo partly specified), the GI50 in assay [1], in assay [2], in assay [3], in [4], in assay [5] and in assay [6] was > 100 µM (inactive) each time. In addition, the GI50 in assay [7] was 49.4 µM (inactive); in [8], > 100 µM (inactive); in assay [9] it was > 100 µM (inactive); in assay [10], 61.5 µM (inactive); in assay [11], > 100 µM (inactive); in assay [12], > 100 µM (inactive). For the same compound, the GI50 in assay [13] is > 100 µM (inactive); in assay [14], > 100 µM (inactive); in assay [15], 93.3 µM (inactive); in assay [16], > 100 µM (inactive); in [17], > 100 µM (inactive).
On to `C[C@H](CCC(=O)NCCS(=O)(=O)O)[C@H]1CC[C@H]2[C@@H]3[C@H](O)C[C@@H]4C[C@H](O)CC[C@]4(C)[C@H]3CC[C@]12C`, for which the GI50 in assay [1], in assay [2], in assay [3], in assay [4], in [5] and in assay [6] was > 100 µM (inactive) each time. In addition, the GI50 in assay [7], in assay [8], in assay [9], in assay [10], in [11] and in assay [12] was > 100 µM (inactive) in each case. Further, the GI50 in [13], in [14], in [15], in assay [16] and in [17] was > 100 µM (inactive) each time.
